Columns and labels:
Test in all cases: Cancer cell line growth inhibition, CellTiter-Glo (Example 3)
Type in all cases: cell-based
[1] = tested on: A498; settings: Homo sapiens, Renal, 72 hours, read-out: growth inhibition of various human cancer cell lines
Procedure: (§1) YT30 was tested for growth inhibition against 67 human cancer cell lines derived from diverse tissues including the National Cancer Institute human cancer cell lines (NCI-60). […] Cells in different wells were treated with various concentrations of YT30, YT86, YT88, or YT128. […] Cell viabilities were determined by the CellTiter-Glo Luminescence Cell Viability assay kit (Promega Corporation, Madison, Wis.) according to manufacturer's protocol.

[2] = tested on: A549; settings: Homo sapiens, Lung, 72 hours, read-out: growth inhibition of various human cancer cell lines
Procedure: as §1

[3] = tested on: BT-549; settings: Homo sapiens, Breast, 72 hours, read-out: growth inhibition of various human cancer cell lines
Procedure: as §1

[4] = tested on: CCRF-CEM; settings: Homo sapiens, Leukemia, 72 hours, read-out: growth inhibition of various human cancer cell lines
Procedure: as §1

[5] = tested on: Caski; settings: Homo sapiens, Ca-Ski, Cervical, 72 hours, read-out: growth inhibition of various human cancer cell lines
Procedure: as §1

[6] = tested on: HL60; settings: Homo sapiens, HL-60, Leukemia, 72 hours, read-out: growth inhibition of various human cancer cell lines
Procedure: as §1

[7] = tested on: HS 578T; settings: Homo sapiens, Breast, 72 hours, read-out: growth inhibition of various human cancer cell lines
Procedure: as §1

[8] = tested on: HeLa; settings: Homo sapiens, Cervical, 72 hours, read-out: growth inhibition of various human cancer cell lines
Procedure: as §1

[9] = tested on: K562; settings: Homo sapiens, Leukemia, 72 hours, read-out: growth inhibition of various human cancer cell lines
Procedure: as §1

[10] = tested on: MCF7; settings: Homo sapiens, Breast, MCF-7, 72 hours, read-out: growth inhibition of various human cancer cell lines
Procedure: as §1

[11] = tested on: MDA-MB-435; settings: Homo sapiens, Breast, 72 hours, read-out: growth inhibition of various human cancer cell lines
Procedure: as §1

[12] = tested on: MDA-MB-468; settings: Homo sapiens, Breast, 72 hours, read-out: growth inhibition of various human cancer cell lines
Procedure: as §1

[13] = tested on: MDA-MB231; settings: Homo sapiens; Breast, MDA-MB-231; 72 hours; read-out: growth inhibition of various human cancer cell lines
Procedure: as §1

[14] = tested on: MOLT-4; settings: Homo sapiens, Leukemia, 72 hours, read-out: growth inhibition of various human cancer cell lines
Procedure: as §1

[15] = tested on: OVCAR-3; settings: Homo sapiens, Ovarian, 72 hours, read-out: growth inhibition of various human cancer cell lines
Procedure: as §1

[16] = tested on: OVCAR-4; settings: Homo sapiens, Ovarian, 72 hours, read-out: growth inhibition of various human cancer cell lines
Procedure: as §1

[17] = tested on: OVCAR-5; settings: Homo sapiens, Ovarian, 72 hours, read-out: growth inhibition of various human cancer cell lines
Procedure: as §1

[18] = tested on: SF-268; settings: Homo sapiens, CNS, 72 hours, read-out: growth inhibition of various human cancer cell lines
Procedure: as §1

[19] = tested on: SF-295; settings: Homo sapiens, CNS, 72 hours, read-out: growth inhibition of various human cancer cell lines
Procedure: as §1

[20] = tested on: SF-539; settings: Homo sapiens, CNS, 72 hours, read-out: growth inhibition of various human cancer cell lines
Procedure: as §1

[21] = tested on: SN12C; settings: Homo sapiens, Renal, 72 hours, read-out: growth inhibition of various human cancer cell lines
Procedure: as §1

[22] = tested on: SNB-19; settings: Homo sapiens, CNS, 72 hours, read-out: growth inhibition of various human cancer cell lines
Procedure: as §1

[23] = tested on: SR; settings: Homo sapiens, Leukemia, 72 hours, read-out: growth inhibition of various human cancer cell lines
Procedure: as §1

[24] = tested on: T-47D; settings: Homo sapiens, T47D, Breast, 72 hours, read-out: growth inhibition of various human cancer cell lines
Procedure: as §1

[25] = tested on: TK-10; settings: Homo sapiens, Renal, 72 hours, read-out: growth inhibition of various human cancer cell lines
Procedure: as §1

[26] = tested on: U251; settings: Homo sapiens, U-251, CNS, 72 hours, read-out: growth inhibition of various human cancer cell lines
Procedure: as §1

[27] = tested on: UO-31; settings: Homo sapiens, Renal, 72 hours, read-out: growth inhibition of various human cancer cell lines
Procedure: as §1

[28] = tested on: siHa; settings: Homo sapiens, Cervical, 72 hours, read-out: growth inhibition of various human cancer cell lines
Procedure: as §1

[29] = tested on: 786-0; settings: Homo sapiens, Renal, 72 hours, read-out: growth inhibition of various human cancer cell lines
Procedure: as §1

[30] = tested on: DU-145; settings: Homo sapiens, Prostate, 72 hours, read-out: growth inhibition of various human cancer cell lines
Procedure: as §1

[31] = tested on: NCI/ADR-RES; settings: Homo sapiens, Breast, 72 hours, read-out: growth inhibition of various human cancer cell lines
Procedure: as §1

[32] = tested on: SNB-75; settings: Homo sapiens, CNS, 72 hours, read-out: growth inhibition of various human cancer cell lines
Procedure: as §1

Row | IC50 [1] [µM] | IC50 [3] [µM] | IC50 [4] [µM] | IC50 [5] [µM] | IC50 [6] [µM] | IC50 [7] [µM] | IC50 [8] [µM] | IC50 [9] [µM] | IC50 [10] [µM] | IC50 [11] [µM] | IC50 [12] [µM] | IC50 [13] [µM] | IC50 [14] [µM] | IC50 [15] [µM] | IC50 [16] [µM] | IC50 [17] [µM] | IC50 [18] [µM] | IC50 [19] [µM] | IC50 [20] [µM] | IC50 [21] [µM] | SMILES | other results
1 | 9.55 | 13.5 | 3.17 | 11.3 | 4.81 | 8.85 | 6.74 | 5.64 | 5.86 | 8.31 | 7.04 | 5.81 | 3.09 | 7.2 | 14.3 | 5.99 | 14.9 | 7.41 | 7.76 | 8 | Nc1ccccc1NC(=O)CCCCCNC(=O)c1cc2ccccc2[nH]1 [YT86] | IC50 [2]: 10.9 µM; IC50 [22]: 14.2 µM; IC50 [23]: 6.4 µM; IC50 [24]: 12.5 µM; IC50 [25]: 17.2 µM; IC50 [26]: 4.47 µM; IC50 [27]: 7.51 µM; IC50 [28]: 8.78 µM
2 | 9.54 | 10.6 | 2.65 | 14.2 | 6.97 | 5.67 | 6.02 | 5.74 | 3.8 | 7.59 | 7.42 | 4.28 | 3 | 6.57 | 11.9 | 5.66 | 14.4 | 6.83 | 6.91 | 7.25 | Nc1ccccc1NC(=O)CCCCCNC(=O)c1ccc(-c2ccccc2)o1 [YT88] | IC50 [29]: 13.8 µM; IC50 [30]: 16.2 µM; IC50 [31]: 14.2 µM; IC50 [22]: 9.61 µM; IC50 [32]: 11.2 µM; IC50 [23]: 5.89 µM; IC50 [24]: 15 µM; IC50 [25]: 13.4 µM; IC50 [26]: 4.38 µM; IC50 [27]: 9.53 µM; IC50 [28]: 9.07 µM
3 | 7.46 | 9.14 | 4.24 | 10.9 | 5.86 | 8.39 | 6.58 | 5.03 | 8.52 | 9.74 | 11.2 | 6.75 | 5.08 | 6.91 | 13.6 | 6.87 | 13.4 | 8.61 | 7.61 | 7.11 | Nc1ccccc1NC(=O)CCCCCCNC(=O)c1cc2ccccc2[nH]1 [YT128] | IC50 [29]: 9.47 µM; IC50 [2]: 12.8 µM; IC50 [31]: 14.6 µM; IC50 [22]: 13.8 µM; IC50 [23]: 5.96 µM; IC50 [24]: 12.6 µM; IC50 [25]: 12.1 µM; IC50 [26]: 5 µM; IC50 [27]: 6.58 µM; IC50 [28]: 9.7 µM

From US20150374646A1, “TREATMENT OF CANCER AND OTHER CONDITIONS USING A TRANSCRIPTION FACTOR MODULATOR” (C & C BIOPHARMA, LLC, priority 2013, published 2015)
